Literature values as cited in patent US20090169606A1, “Low Flexural Strength Transdermal Tobacco Alkaloid Patch” (Fertin Pharma, priority 2005, published 2009).

Details: pure nicotine placed on the skin of an ordinary human being

SMILES: CN1CCCC1c1cccnc1 (stereo not shown) [nicotine]
- lethal dose: 50 mg
